# Source: patent US10543212B2, “Substituted amines for treating cardiac diseases” (Cardurion Pharmaceuticals, LLC, priority 2017, dated 2020)
# Target: T1, Full-length, GST-tagged, human CaMKIIδ (Homo sapiens, UniProt Q13557)
# T1 construct: Full-Length, Glutathione-S-Transferase(GST)-Tagged, Human CaMKIIδ was purchased from Carna Biosciences; purchased Carna Biosciences 02-111
# Test: CaMKIIδ binding assay (TR-FRET with BODIPY-labeled probe ligand)
# Details: CaMKIIδ binding assay, results of Table 2
# Protocol: In vitro CaMKIIδ inhibitory activity was evaluated by a binding assay.
# Full-Length, Glutathione-S-Transferase(GST)-Tagged, Human CaMKIIδ was purchased from Carna Biosciences (product #02-111, Kobe, Japan). Full-length bovine calmodulin was purchased from Wako Pure Chemical Industries (Osaka, Japan). Terbium-labeled anti-GST antibody (Tb-anti-GST Ab) was purchased from Life Technologies (Carlsbad, Calif., USA). Boron-dipyrromethene (BODIPY)-labeled probe ligand was synthesized as described below.
# Time-Resolved Fluorescence Resonance Energy Transfer (TR-FRET) Assay
# All assays were conducted using 384-well, white, flat-bottomed plates (product #784075, Greiner Bio-One, Frickenhausen, Germany) in kinase assay buffer, which consists of 50 mM HEPES pH 7.6, 10 mM MgCl2, 1 mM EGTA, 0.01% Brig-35, 0.1 mM DTT). The fluorescent probe ligand was added at a final concentration of 300 nM to solutions containing 0.21 nM Tb-anti-GST Ab, 1 mM CaCl2), 10 μg/mL calmodulin, and 0.5 nM GST-tagged CaMKIIδ. After shaded incubation of the protein-probe mixture on ice for 30 min, the premix was dispensed in the assay plate including test inhibitors with 4 fold dilution series of eight concentrations. After 1 hr incubation at room temperature, TR-FRET signals were measured in duplicate using an EnVision microplate reader (Perkin Elmer, Waltham, Mass., USA). The solution in each well was excited with a laser (λ=340 nm) reflected by a dichroic mirror (D400/D505 (Perkin Elmer) through an excitation filter (UV (TRF) 340, (Perkin Elmer)), and fluorescence from Tb and BODIPY were detected through two emission filters (CFP 495 (Perkin Elmer) for Tb, Emission 520 (Perkin Elmer) for BODIPY).
# The percentage of inhibition of test compounds was calculated according to equation (1) Inhibition (%)=100×([…]−T)/(μH−μL) (1)
# Where T is the value of the wells containing test compounds and μH and μL are the mean values of the 0% and 100% inhibition control wells, respectively. The values of the 0 and 100% controls were the signals obtained in the absence and presence of 3 μM its parent compound, respectively. The half maximal inhibitory concentration (IC50) of test compounds was calculated by fitting the data with the logistic equation using XLfit (IDBS, Guildford, UK). The IC50 was classified according to the following activity ranks.
# T1 sequence (Q13557 1-478 isoform Q13557-12): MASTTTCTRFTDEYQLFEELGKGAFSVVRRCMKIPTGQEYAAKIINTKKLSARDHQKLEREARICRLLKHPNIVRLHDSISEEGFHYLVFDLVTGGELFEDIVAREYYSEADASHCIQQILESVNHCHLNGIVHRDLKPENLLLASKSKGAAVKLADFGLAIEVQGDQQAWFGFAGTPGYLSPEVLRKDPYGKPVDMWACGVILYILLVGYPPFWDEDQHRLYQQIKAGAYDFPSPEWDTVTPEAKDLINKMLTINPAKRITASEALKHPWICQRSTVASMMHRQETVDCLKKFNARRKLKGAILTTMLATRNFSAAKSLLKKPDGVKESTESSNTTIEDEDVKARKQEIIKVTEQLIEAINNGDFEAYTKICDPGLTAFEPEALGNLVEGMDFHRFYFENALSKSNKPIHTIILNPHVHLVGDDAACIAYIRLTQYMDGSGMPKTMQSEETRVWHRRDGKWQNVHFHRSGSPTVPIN
row,SMILES,IC50 [nM]
1,"COC1CCC(N2CCC(n3cc(Nc4ncc(-c5ccc(Cl)c(OC(C)Cn6cnnn6)c5)cn4)c(C(F)(F)F)n3)CC2)CC1 (single isomer, unassigned; less polar) [Example 568, (S)-5-(3-((1-(1H-tetrazol-1-yl)propan-2-yl)oxy)-4-chlorophenyl)-N-(1-(1-(cis or trans-4-methoxycyclohexyl)piperidin-4-yl)-3-(trifluoromethyl)-1H-pyrazol-4-yl)pyrimidin-2-amine, less polar]",< 10
2,"COC1CCC(N2CCC(n3cc(Nc4ncc(-c5ccc(Cl)c(OC(C)Cn6cnnn6)c5)cn4)c(C(F)(F)F)n3)CC2)CC1 (single isomer, unassigned; more polar) [Example 556, (S)-5-(3-((1-(1H-tetrazol-1-yl)propan-2-yl)oxy)-4-chlorophenyl)-N-(1-(1-(cis or trans-4-methoxycyclohexyl)piperidin-4-yl)-3-(trifluoromethyl)-1H-pyrazol-4-yl)pyrimidin-2-amine, more polar]",< 10
3,"C[C@@H](Cn1cnnn1)Oc1cc(-c2cnc(Nc3ccc4c(c3)N(C(=O)C3CCN(C)CC3)CC4)nc2)ccc1Cl [Example 435, (S)-(6-((5-(3-((1-(1H-tetrazol-1-yl)propan-2-yl)oxy)-4-chlorophenyl)pyrimidin-2-yl)amino)indolin-1-yl) (1-methylpiperidin-4-yl)methanone]",< 10
4,"C[C@@H](Cn1cnnn1)Oc1cc(-c2cnc(Nc3ccc4c(c3)N(C(=O)CCCN(C)C)CC4)nc2)ccc1Cl [Example 436, (S)-1-(6-((5-(3-((1-(1H-tetrazol-1-yl)propan-2-yl)oxy)-4-chlorophenyl)pyrimidin-2-yl)amino)indolin-1-yl)-4-(dimethylamino)butan-1-one]",< 10
5,"C[C@@H](Cn1cnnn1)Oc1cc(-c2cnc(Nc3ccc4c(c3)N(C(=O)CCN(C)C)CC4)nc2)ccc1Cl [Example 437, (S)-1-(6-((5-(3-((1-(1H-tetrazol-1-yl)propan-2-yl)oxy)-4-chlorophenyl)pyrimidin-2-yl)amino)indolin-1-yl)-3-(dimethylamino)propan-1-one]",< 10
6,"COc1cc2c(cc1Nc1ncc(-c3ccc(Cl)c(O[C@@H](C)Cn4cnnn4)c3)cn1)C(=O)N(C1CCOCC1)C2 [Example 438, (S)-6-((5-(3-((1-(1H-tetrazol-1-yl)propan-2-yl)oxy)-4-chlorophenyl)pyrimidin-2-yl)amino)-5-methoxy-2-(tetrahydro-2H-pyran-4-yl)isoindolin-1-one]",10 to 100
7,"COc1cc(C)c(C(=O)N2CCOCC2)cc1Nc1ncc(-c2ccc(Cl)c(O[C@@H](C)Cn3cnnn3)c2)cn1 [Example 439, (S)-(5-((5-(3-((1-(1H-tetrazol-1-yl)propan-2-yl)oxy)-4-chlorophenyl)pyrimidin-2-yl)amino)-4-methoxy-2-methylphenyl)(morpholino)methanone]",< 10
8,"COc1cc(C)c(C(=O)N2CCOCC2)cc1Nc1ncc(-c2ccc(C#N)c(O[C@@H](C)Cn3cnnn3)c2)cn1 [Example 440, (S)-2-((1-(1H-tetrazol-1-yl)propan-2-yl)oxy)-4-(2-((2-methoxy-4-methyl-5-(morpholine-4-carbonyl)phenyl)amino)pyrimidin-5-yl)benzonitrile]",< 10
9,"COc1cc2c(cc1Nc1ncc(-c3ccc(Cl)c(O[C@@H](C)Cn4cnnn4)c3)cn1)C(=O)N(C1CCC1)C2 [Example 441, (S)-6-((5-(3-((1-(1H-tetrazol-1-yl)propan-2-yl)oxy)-4-chlorophenyl)pyrimidin-2-yl)amino)-2-cyclobutyl-5-methoxyisoindolin-1-one]",10 to 100
10,"COc1cc2c(cc1Nc1ncc(-c3ccc(C#N)c(O[C@@H](C)Cn4cnnn4)c3)cn1)C(=O)N(C1CCC1)C2 [Example 442, (S)-2-((1-(1H-tetrazol-1-yl)propan-2-yl)oxy)-4-(2-((2-cyclobutyl-6-methoxy-3-oxoisoindolin-5-yl)amino)pyrimidin-5-yl)benzonitrile]",10 to 100
11,"COc1cc2c(cc1Nc1ncc(-c3ccc(C#N)c(O[C@@H](C)Cn4cncn4)c3)cn1)C(=O)N(C1CCC1)C2 [Example 443, (S)-2-((1-(1H-1,2,4-triazol-1-yl)propan-2-yl)oxy)-4-(2-((2-cyclobutyl-6-methoxy-3-oxoisoindolin-5-yl)amino)pyrimidin-5-yl)benzonitrile]",10 to 100
12,"C[C@@H](Cn1cnnn1)Oc1cc(-c2cnc(Nc3ccc(N4CCC(N5CCOCC5)CC4)cc3C(N)=O)nc2)ccc1Cl [Example 444, (S)-2-((5-(3-((1-(1H-tetrazol-1-yl)propan-2-yl)oxy)-4-chlorophenyl)pyrimidin-2-yl)amino)-5-(4-morpholinopiperidin-1-yl)benzamide]",≥ 100
13,"COc1cc2c(cc1Nc1ncc(-c3ccc(Cl)c(O[C@@H](C)Cn4cnnn4)c3)cn1)C(=O)N(CC1COC1)C2 [Example 445, (S)-6-((5-(3-((1-(1H-tetrazol-1-yl)propan-2-yl)oxy)-4-chlorophenyl)pyrimidin-2-yl)amino)-5-methoxy-2-(oxetan-3-ylmethyl)isoindolin-1-one]",10 to 100
14,"COc1cc2c(cc1Nc1ncc(-c3ccc(C#N)c(O[C@@H](C)Cn4cnnn4)c3)cn1)C(=O)N(CC1COC1)C2 [Example 446, (S)-2-((1-(1H-tetrazol-1-yl)propan-2-yl)oxy)-4-(2-((6-methoxy-2-(oxetan-3-ylmethyl)-3-oxoisoindolin-5-yl)amino)pyrimidin-5-yl)benzonitrile]",10 to 100
15,"COc1cc2c(cc1Nc1ncc(-c3ccc(Cl)c(O[C@@H](C)Cn4cnnn4)c3)cn1)CCN(C1COC1)CC2 [Example 447, (S)-N-(5-(3-((1-(1H-tetrazol-1-yl)propan-2-yl)oxy)-4-chlorophenyl)pyrimidin-2-yl)-8-methoxy-3-(oxetan-3-yl)-2,3,4,5-tetrahydro-1H-benzo[d]azepin-7-amine]",< 10
16,"COc1ccc(CN2CCOCC2)cc1Nc1ncc(-c2ccc(Cl)c(O[C@@H](C)Cn3cnnn3)c2)cn1 [Example 448, (S)-5-(3-((1-(1H-tetrazol-1-yl)propan-2-yl)oxy)-4-chlorophenyl)-N-(2-methoxy-5-(morpholinomethyl)phenyl)pyrimidin-2-amine]",10 to 100

# Same assay, conditions: CaMKIIδ binding assay; activity class per Table 2
row,SMILES,IC50 [nM]
1,"C[C@@H](Cn1cnnn1)Oc1cc(-c2cnc(Nc3cn([C@@H]4CCNC[C@H]4O)nc3C(F)(F)F)nc2)ccc1Cl (mixture of isomers) [Example 892, trans-4-(4-((5-(3-(((S)-1-(1H-tetrazol-1-yl)propan-2-yl)oxy)-4-chlorophenyl)pyrimidin-2-yl)amino)-3-(trifluoromethyl)-1H-pyrazol-1-yl)piperidin-3-ol]",< 10
2,"C[C@@H](Cn1cnnn1)Oc1cc(-c2cnc(Nc3cn([C@@H]4CCN(C5CCOCC5)C[C@H]4O)nc3C(F)(F)F)nc2)ccc1Cl (mixture of isomers) [Example 897, trans-4-(4-((5-(3-(((S)-1-(1H-tetrazol-1-yl)propan-2-yl)oxy)-4-chlorophenyl)pyrimidin-2-yl)amino)-3-(trifluoromethyl)-1H-pyrazol-1-yl)-1-(tetrahydro-2H-pyran-4-yl)piperidin-3-ol]",< 10
3,"C[C@@H](Cn1cnnn1)Oc1cc(-c2cnc(Nc3cn([C@@H]4CCN(C5CCC5)C[C@H]4O)nc3C(F)(F)F)nc2)ccc1Cl (mixture of isomers) [Example 898, trans-4-(4-((5-(3-(((S)-1-(1H-tetrazol-1-yl)propan-2-yl)oxy)-4-chlorophenyl)pyrimidin-2-yl)amino)-3-(trifluoromethyl)-1H-pyrazol-1-yl)-1-cyclobutylpiperidin-3-ol]",< 10
4,"C[C@@H](Cn1cnnn1)Oc1cc(-c2cnc(Nc3cn([C@@H]4CN(C5CCC5)CC[C@H]4O)nc3C(F)(F)F)nc2)ccc1Cl (mixture of isomers) [Example 904, trans-3-(4-((5-(3-(((S)-1-(1H-tetrazol-1-yl)propan-2-yl)oxy)-4-chlorophenyl)pyrimidin-2-yl)amino)-3-(trifluoromethyl)-1H-pyrazol-1-yl)-1-cyclobutylpiperidin-4-ol]",< 10

# Same assay, conditions: Table 2; activity class for CaMKIIδ
row,SMILES,IC50 [nM]
1,"C[C@@H](Cn1cnnn1)Oc1cc(-c2cnc(Nc3cn([C@@H]4CCCC[C@H]4O)nc3C(F)(F)F)nc2)ccc1Cl (mixture of isomers) [Example 704, trans-2-(4-((5-(3-(((S)-1-(1H-tetrazol-1-yl)propan-2-yl)oxy)-4-chlorophenyl)pyrimidin-2-yl)amino)-3-(trifluoromethyl)-1H-pyrazol-1-yl)cyclohexan-1-ol]",< 10
